Article doi:10.1101/2025.03.23.644840v2 (biorxiv, 2025)
Read-outs that look alike come from different tables or passages of the source.

Key:
Assay in all cases: isothermal titration calorimetry
Anc1 = type: binding, synthetic construct; conditions: 25 °C; 20 mM HEPES, 150 mM NaCl, 2% glycerol, pH 8; 1:1 model
ecLacI = ecLacI (Escherichia coli, UniProt P03023); type: binding
ΔAnc4 = biological target: ΔAnc4; parameters: species or system synthetic construct; conditions: 25 °C; 20 mM HEPES, 150 mM NaCl, 2% glycerol, pH 8; 1:1 model
Anc4 = type: binding, synthetic construct; conditions: 25 °C; 20 mM HEPES, 150 mM NaCl, 2% glycerol, pH 8; 1:1 model
Anc3 = type: binding, synthetic construct; conditions: 25 °C; 20 mM HEPES, 150 mM NaCl, 2% glycerol, pH 8; 1:1 model
Anc2 = type: binding, synthetic construct; conditions: 25 °C; 20 mM HEPES, 150 mM NaCl, 2% glycerol, pH 8; 1:1 model
ΔAnc1 = biological target: ΔAnc1; parameters: species or system synthetic construct; conditions: 25 °C; 20 mM HEPES, 150 mM NaCl, 2% glycerol, pH 8; 1:1 model

ecLacI, sequence (P03023 whole entry): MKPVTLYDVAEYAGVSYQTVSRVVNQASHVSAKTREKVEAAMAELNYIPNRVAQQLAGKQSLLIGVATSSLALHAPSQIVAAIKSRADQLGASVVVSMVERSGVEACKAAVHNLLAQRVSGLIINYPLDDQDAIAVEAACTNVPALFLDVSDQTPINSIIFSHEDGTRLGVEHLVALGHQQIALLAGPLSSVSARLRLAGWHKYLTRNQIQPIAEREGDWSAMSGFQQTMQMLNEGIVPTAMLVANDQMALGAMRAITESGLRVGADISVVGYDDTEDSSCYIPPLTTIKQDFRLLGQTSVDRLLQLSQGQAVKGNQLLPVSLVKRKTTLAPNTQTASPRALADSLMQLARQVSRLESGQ

Row | Kd (Anc1) | Kd (ecLacI) | Kd (ΔAnc4) | Kd (Anc4) | Kd (Anc3) | Kd (Anc2) | Kd (ecLacI; 25 °C, 20 mM HEPES, 150 mM NaCl, 2% glycerol, pH 8, 1:1 model) | Kd (ΔAnc1) | SMILES
1 | 4000 µM | 306 µM | 430 µM | 550 µM | 2500 µM | 2200 µM |  |  | CO[C@@H]1O[C@H](CO)[C@H](O)[C@H](O)[C@H]1O [BMDG]
2 | 127 µM |  |  | 15000 µM |  |  | 37000 µM | 420 µM | C[C@H]1OC(O)[C@H](O)[C@@H](O)[C@H]1O (stereo partly drawn) [D-fucose]
